Test results taken from Sander's compilation of Henry's law constants (doi:10.14233/ajchem.2013.13584).
Several values for one entry are separate records, joined by “and”; a condition that tells them apart may be missing. Identical values can stand only once.

Assay: Henry solubility constant Hcp at 298.15 K (mol/(m3 Pa))
Conditions: reference: Zhang et al. (2013)

| SMILES | Henry solubility constant Hcp |
| --- | --- |
| Cc1ccccc1C [1,2-dimethylbenzene] | 0.0027 and 0.0022 |
| CCc1ccccc1 [ethylbenzene] | 0.0019 and 0.0014 |
| O=[N+]([O-])c1ccccc1 [nitrobenzene] | 0.14 |
| Cc1ccccc1 [methylbenzene] | 0.0028 |
| c1ccccc1 [benzene] | 0.0027 and 0.0035 |
| ClC=C(Cl)Cl [trichloroethene] | 0.0016 and 0.0013 |
